Data as given in US20150086557A1, “NOVEL INTEGRIN alpha9 beta1 LIGAND AND USES THEREOF” (OSAKA UNIVERSITY, priority 2012, published 2015).

Experiments:
A549 cells = assay: Cell adhesion assay on coated plates (A549 cells); assay type: cell-based, human; conditions: data not shown
hematopoietic stem cells = assay: FACS analysis of differentiation of hematopoietic stem cells on coated wells; assay type: cell-based, mouse; conditions: day 3 of culture on coated well, FIG. 19
Experimental: Bone marrow cells were flushed out from the femurs and tibias of three mice of 6 to 7 weeks of age (C57BL/6J) and dissociated with a 22G needle. The cells were reacted with a biotin-labeled anti-lineage antibody for 30 minutes and subsequently with an anti-blotin antibody-conjugated magnetic beads, and lineage-positive cells were removed by automated magnetic cell sorter autoMACS (Miltenyi Biotec). After staining with PE-CD3, PE-Mac1, PE-Gr1, PE-Ter119, PE-B220, FTTC-Sca1 and APC-c-Kit, a lineage(−) Sca1(+) c-Kit (high) cell fraction was sorted out using FACSAria and used for the experiments described below.
The above-prepared cells were plated on a 48-well plate coated with a recombinant polydom protein or fibronectin. The same type of plate without coating was used as a control. The medium used was RPMI containing 10% fetal calf serum, thrombopoietin (30 ng/ml) and flt3 ligand (100 ng/ml). For the examination of cell proliferation, the cells were plated in duplicate wells for each coating at 1000 cells/well and started to be cultured, and the cell number was counted at the start of culture, and on day 2 and day 3. The remaining cells were divided into three aliquots, plated in wells for each coating, and subjected to FACS analysis on day 3 after the start of culture. For the FACS analysis, staining with an antibody cocktail containing PE-CD3, PE-Mac1, PE-Gr1, PE-Ter119, PE-B220, FITC-Sca1 and APC-c-Kit was performed and FACSCont was used.

integrin α9β1 = target: T1, integrin α9β1 (Homo sapiens, UniProt P05556+Q13797); assay: Direct integrin binding assay with recombinant integrin α9β1
T1 construct: A cDNA encoding the extracellular region of human integrin α9; An expression vector for the extracellular region of integrin β1; ACID coiled-coil (Velcro) peptide; FLAG; BASE coiled-coil (Velcro) peptide; made in house; host or cells: FreeStyle 293 Expression System (293-F cells)
T1 sequence (Q13797 30-981 limits assumed): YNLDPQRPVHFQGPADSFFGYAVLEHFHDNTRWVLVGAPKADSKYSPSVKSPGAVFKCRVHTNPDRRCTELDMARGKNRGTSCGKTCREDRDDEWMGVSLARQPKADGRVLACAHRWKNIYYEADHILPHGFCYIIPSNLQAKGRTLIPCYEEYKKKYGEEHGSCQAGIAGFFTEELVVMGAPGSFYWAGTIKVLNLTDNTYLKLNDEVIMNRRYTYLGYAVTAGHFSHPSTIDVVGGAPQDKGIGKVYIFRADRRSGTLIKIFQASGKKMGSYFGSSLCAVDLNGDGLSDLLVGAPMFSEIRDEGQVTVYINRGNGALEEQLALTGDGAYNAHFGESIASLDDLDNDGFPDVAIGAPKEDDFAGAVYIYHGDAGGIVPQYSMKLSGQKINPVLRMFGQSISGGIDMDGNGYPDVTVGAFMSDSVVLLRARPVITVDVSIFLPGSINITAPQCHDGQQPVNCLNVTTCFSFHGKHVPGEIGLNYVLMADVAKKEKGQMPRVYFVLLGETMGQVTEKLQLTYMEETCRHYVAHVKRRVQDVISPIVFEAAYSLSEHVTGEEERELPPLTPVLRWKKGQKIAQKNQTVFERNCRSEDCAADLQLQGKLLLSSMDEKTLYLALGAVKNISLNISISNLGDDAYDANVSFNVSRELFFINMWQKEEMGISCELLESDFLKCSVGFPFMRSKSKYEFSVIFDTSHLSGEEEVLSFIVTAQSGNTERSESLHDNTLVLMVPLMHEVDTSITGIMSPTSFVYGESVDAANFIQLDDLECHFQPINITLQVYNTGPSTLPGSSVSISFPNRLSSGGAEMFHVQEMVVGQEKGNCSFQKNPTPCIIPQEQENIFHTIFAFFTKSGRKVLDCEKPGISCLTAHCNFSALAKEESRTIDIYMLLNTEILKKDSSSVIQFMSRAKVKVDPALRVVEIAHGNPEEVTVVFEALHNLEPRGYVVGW
T1 sequence (P05556 21-728 limits assumed): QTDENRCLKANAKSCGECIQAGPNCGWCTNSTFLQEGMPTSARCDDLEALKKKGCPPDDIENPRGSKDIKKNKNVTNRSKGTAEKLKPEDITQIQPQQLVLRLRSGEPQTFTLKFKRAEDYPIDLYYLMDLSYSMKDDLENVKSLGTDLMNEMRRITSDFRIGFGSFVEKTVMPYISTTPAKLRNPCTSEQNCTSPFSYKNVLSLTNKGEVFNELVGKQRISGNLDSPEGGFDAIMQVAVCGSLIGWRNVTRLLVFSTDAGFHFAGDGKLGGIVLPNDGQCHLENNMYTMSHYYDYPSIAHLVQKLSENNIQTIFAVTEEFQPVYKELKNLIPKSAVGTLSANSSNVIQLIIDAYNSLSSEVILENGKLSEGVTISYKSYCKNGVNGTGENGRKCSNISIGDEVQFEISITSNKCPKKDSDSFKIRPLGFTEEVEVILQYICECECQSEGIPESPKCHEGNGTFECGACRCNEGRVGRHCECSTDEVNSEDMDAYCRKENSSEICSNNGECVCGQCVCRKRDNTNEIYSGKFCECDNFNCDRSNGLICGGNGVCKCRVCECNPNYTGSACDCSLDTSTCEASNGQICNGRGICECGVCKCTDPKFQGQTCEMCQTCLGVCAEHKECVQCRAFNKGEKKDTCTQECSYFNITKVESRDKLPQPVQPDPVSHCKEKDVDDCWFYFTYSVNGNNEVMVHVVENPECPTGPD
From the text: A cDNA encoding the extracellular region of human integrin α9 was amplified by RT-PCR from total RNA extracted from RD cells and cloned into pBluescript KS(+). After verification of the nucleotide sequence, an error-free cDNA fragment was inserted into pcDNA-ACID-FLAG (Nishiuchi, R., Takagi, J., Hayashi, M., Ido, H., Yagi, Y., Sanzen, N., Tsuji, T., Yamada, M., and Sekiguchi, K. (2006) Matrix Biol. 25, 189-197). An expression vector for the extracellular region of integrin β1 was provided by Dr. Junichi Takagi (Takagi, J., Erickson, H. P., and Springer, T. A. (2001) Nat. Struct. Biol. 8, 412-416). The recombinant integrins were produced using the Freestyle™ 293 Expression System (Invitrogen) and purified as described in the above-mentioned publication Matrix Biol. 25, 189-197, (2006).
An integrin binding assay was performed as described in the above-mentioned publication Matrix Biol. 25, […], (2006). In some experiments, integrins were preincubated with synthetic peptides at various concentrations to evaluate the inhibitory activities of the synthetic peptides. The apparent dissociation constants were determined as described in Nishiuchi, R., Murayama, O., Fujiwara, H., Gu, J., Kawakami. T., Aimoto, S., Wada, Y., and Sekiguchi, K. (2003) J. Biochem, 134, 497-504.
To corroborate the role of integrin α9β1 as an adhesion receptor for polydom, a direct integrin binding assay was performed, using recombinant integrin α9β1. Plates were coated with full-length polydom, pol-N, pol-C, plasma fibronectin (pFN) or cellular fibronectin (cFN), and recombinant integrin α9β1 was added and allowed to bind thereto in the presence of 1 mM MnCl2 or 10 mM EDTA. BSA was used as a negative control. The bound integrin was quantified using a biotinylated anti-Velcro antibody and HRP-conjugated streptavidin.
Integrin α9β1 is known to bind to the third fibronectin type III domain of tenascin-C (TNfn3) and the osteopontin N-terminal half (OPN-Nhalf). These integrin α9β1 ligands were recombinantly expressed as GST fusion proteins and then purified. In the GST fusion proteins, the RGD cell-adhesive motifs were replaced with RAA to nullify their abilities to interact with RGD-binding integrins, such as those containing the αv subunit, Microtiter plates were coated with pol-C (10 nM), GST-TNfn3-RAA (100 nM) or GST-OPN-Nhalf-RAA (100 nM), and integrin α9β1 was added and allowed to bind thereto in the presence of 1 mM MnCl2.
To locate the integrin α9β1-binding site within polydom, a series of five N-terminal deletion mutants of polydom (pol-C, ΔEGF6, ΔPTX, ΔCCP20 and ΔCCP21; see FIG. 9) were constructed. Their binding activities for integrin α9β1 were evaluated in the presence of 1 mM MnCl2 or 10 mM EDTA using microtiter plates coated with these recombinant proteins (10 nM).
Among the 34 CCP domains within polydom, CCP21 is unique because it contains about 40 extra amino acids as compared with the other CCP domains. An assay to examine whether this extra region (hereinafter referred to as “extra segment”) within CCP21 is involved in binding to integrin α9β1 was performed, Microtiter plates were coated with a GST-CCP21 fusion protein, a D2628-S2664 deletion mutant of the GST-CCP21 fusion protein (CCP21ΔD2628-S2664), D2628-S2664 alone (see FIG. 11), pol-C or GST alone, and integrin α9β1 was added and allowed to bind thereto in the presence of 1 mM MnCl2 or 10 mM EDTA.
To further narrow down the region responsible for binding to integrin α9β1, the extra 37-amino acid segment of CCP21 was divided into smaller segments, of which GST fusion proteins were produced. Microtiter plates were coated with eight kinds of segments including CCP21, pol-C and GST alone, and integrin α9β1 was added and allowed to bind thereto in the presence of 1 mM MnCl2 or 10 mM EDTA.
To identify the residues involved in binding to Integrin α9β1, alanine scanning mutants and N-terminal or C-terminal deletion mutants of D2634-L2645 were produced as GST fusion proteins. […]

binding of recombinant integrin α9β1 to coated protein (integrin α9β1; 1 mM MnCl2, FIG. 7): bound
binding of recombinant integrin α9β1 in the presence of EDTA (integrin α9β1; 10 mM EDTA, FIG. 7): completely abrogated
Substance: polydom: recombinant mouse SVEP1 (SEQ ID NO: 2), ECM protein, ligand for integrin α9β1
adhesion of A549 cells (A549 cells): did not adhere
expression of Sca1 on hematopoietic stem cells (hematopoietic stem cells): maintained the expression of Sca1
expression of c-Kit on hematopoietic stem cells (hematopoietic stem cells): reduced expression of c-Kit
